Laboratory results published in article PMC4971421, “Redox-Dependent Modulation of T-Type Ca^2+ Channels in Sensory Neurons Contributes to Acute Anti-Nociceptive Effect of Substance P” (Antioxidants & Redox Signaling, 2016).

What was measured:
[1] = system: T-type Ca^2+ channels (LVA Ca^2+ current) in DRG neurons; test: LVA (T-type) Ca2+ current, whole-cell patch clamp, cultured small-diameter DRG neurons; type: cell-based, rat; details: 1 μM; mean ± SEM, n = 7; SEM
Method: DRG neurons from adult male Sprague–Dawley rats (170–180 g) were dissociated as previously described ([13], [29]) and cultured in DMEM supplemented with GlutaMax I, 10% fetal calf serum, penicillin (50 U/ml), and streptomycin (50 μg/ml) on glass coverslips that were coated with poly-D-lysine for 2–5 days in a humidified incubator (37°C, 5% CO2). No growth factors were added to the culture media. HEK 293 cells were cultured in the same DMEM media; cells were passaged every 2 days. Human NK1 receptor (GenBank accession No. AY462098) complementary DNA (cDNA) was from the Missouri Science and Technology cDNA Resource Center. WtCaV3.1 (GenBank accession No. AF027984), wtCaV3.2 (GenBank accession No. AF051946), CaV3.1Q172H, and CaV3.2H191Q were kindly provided by Dr E. Perez-Reyes (University of Virginia). HEK293 cells were transfected using Lipofectamine 2000 (Invitrogen) according to the manufacturer's instructions. ST101 was synthesized in house; Z944 was from Toronto Research Chemicals; PTX was from Enzo Life Science; and FluoZin-3AM was from Life Technologies. All other chemicals were from Sigma.
All recordings were made using Multiclamp 700B amplifier in combination with pCLAMP 10.4 software (Molecular Devices). Voltage-clamp recordings from DRG neurons were made using whole-cell patch clamp. The standard bath solution contained the following (in mM): 150 TEA-Cl; 2.5 CsCl; 2.5 CaCl2; 10 HEPES; 0.5 MgCl2; and 10 glucose (pH 7.4 adjusted with CsOH). The standard pipette solution contained the following (in mM): 110 CsCl; 3 MgCl2; 10 EGTA; 10 HEPES; 3 Mg-ATP; and 0.6 GTP (pH 7.4 adjusted with CsOH). The access resistance was typically within 4–8 MΩ. T-type calcium currents (LVA) were measured by 50 ms square voltage pulses to −40 mV from a holding potential of −90 mV. HVA currents were measured by 200 ms square voltage pulses to 0 mV from a holding potential of −90 mV.
where y is the current inhibition; A1 and A2 are the maximum and minimum effects, respectively; x is the S9SP concentration; and nH is the Hill coefficient.

rat hind paw [2] = test: von Frey test; type: in vivo; details: 50 μl; 0.5 nmol/site; filaments 2–15 g; 8 min after injection
Method: (§1) For measurement of sensitivity to gentle touch and mechanical hyperalgesia, two methods were used. (i) Cotton swab test was performed as previously described ([53]). Briefly, rats were allowed to acclimate in a cage with a wire mesh bottom for at least 30 min and then were manually probed with a “cotton swab” pulled from a Q-tip (to approximately three times the original size). A swab was applied in a sweeping motion underneath the rats’ paws, and the withdrawal responses were recorded. Five sweeps were applied in each test, with at least 10 s between each sweep; withdrawal score was calculated as a percentage of positive responses. (ii) The von Frey test was performed using a calibrated range of filaments with different bending forces (2, 4, 6, 8, 10, and 15 g; Stoelting Co.). A single filament was applied perpendicularly to the plantar surface of the hind paw for five times, with an interval of 5 s, and it was scored for withdrawal responses. Each force was probed five times, the number of withdrawals out of five trials was counted, and the percentage of withdrawal responses was calculated. Both types of assays were performed 8 min after the hind-paw drug injection.

[3] = system: small-diameter DRG neurons; test: DRG neuron excitability, perforated patch current clamp; type: cell-based, rat
Method: To knock down CaV3.2, DRGs were dissociated as described ([13]); immediately after dissociation, DRG pellets were resuspended in 900 μl DMEM (without GlutaMax I, serum or antibiotics), to which a mixture of 9 μl Lipofectamine RNAiMAX (Invitrogen) and either a mix of three anti-Cacna1h Stealth siRNAs (RSS350285, RSS350286, RSS350287; Life Technologies; 200 nM each) or a scrambled control oligo (Stealth RNAi™ siRNA Negative Control; Life Technologies; 200 nM) were added immediately before resuspension. Cultures were than plated in 50 μl droplets onto glass coverslips that were coated with poly-D-lysine and incubated for 5–6 h; the transfection media were then replaced with full DRG culture medium. Patch-clamp recordings were conducted 24–48 h after the transfection. The following primers were used for reverse transcription polymerase chain reaction (RT-PCR) analysis: • Cacna1h sense: 5′-[…]-3′ • Cacna1h AS: 5′-[…]-3′ • Gapdh sense: 5′-[…]-3′ • Gapdh AS: 5′-[…]-3′
Neuronal excitability was studied using the amphotericin B-perforated patch-clamp current technique ([13]). The extracellular solution contained the following (in mM): 160 NaCl, 2.5 KCl, 5 CaCl2, 1 MgCl2, 10 HEPES, and 8 Glucose. The intracellular solution contained the following (in mM): 145 KCl, 15 NaCl, 5 MgCl2, 10 HEPES, and 250 μg/ml Amphotericin B. The access resistance was typically within […]. APs were generated by an injection of 200 pA current for 1 s from a holding current of 0 pA. Rheobase was determined from a train of current steps from 0 to 400 pA delivered in 20-pA increments. Current clamp recordings were sampled at 12.5 kHz. Bridge balance adjustments were not applied, since only relative changes in Erest, AP number, and rheobase were investigated.

hERG channels = details: 1 μM; cited from earlier work
rat hind paw [4] = test: Cotton swab test (gentle touch); type: in vivo; details: 50 μl; 0.5 nmol/site; 8 min after injection
Method: as §1

rat hind paw [5] = test: Hargreaves test, paw withdrawal latency to noxious heat; type: in vivo; details: hind-paw injection 50 μl; 0.005–0.5 nmol/site; 8 min after injection
Method: For measurement of thermal hyperalgesia, the change in the latency of hind-paw withdrawal in response to noxious heat was recorded using the Hargreaves’ plantar method (Ugo Basile) at 8 min after the hind-paw injection of drugs; the heat source was set to 25% of the maximal intensity.

CC(C)(C)NC(=O)CN1CCC(CNC(=O)c2cc(F)cc(Cl)c2)CC1 [Z944, N-[[1-[2-(tert-butylamino)-2-oxoethyl]piperidin-4-yl]methyl]-3-chloro-5-fluorobenzamide]
inhibition of LVA current [1]: 71.4% ± 2.7%
response to von Frey filament stimulation (rat hind paw [2]): significantly impaired their ability to respond to stimulation
AP amplitude or duration [3]: without significantly affecting
resting membrane potential (Erest) [3]: hyperpolarized
action potential (AP) firing ([3]; 200 pA for 1 s): decreased
effects of BK on the rheobase and the AP number when co-applied with BK ([3]; BK 250 nM): completely reversed
rheobase ([3]; current steps 0–400 pA in 20-pA increments): significantly increased
small DRG neuron excitability ([3]; perforated current clamp): decreased
effect on Erest, AP number, or rheobase in Cacna1h knocked-down neurons ([3]; siRNA against Cacna1h): neither Z994 nor ST101 produced any significant effect
effect on hERG channels (hERG channels): no significant effect
sensitivity to light touch, cotton swab assay (rat hind paw [4]): produced a similar effect
paw withdrawal latency on radiant heat exposure (rat hind paw [5]): significantly increased
